The source of these data is patent US8076308B2, “Inhibition of autophagy genes in cancer chemotherapy” (British Columbia Cancer Agency, priority 2005, dated 2011).

Like-named read-outs stand apart in the source and are kept apart here.

The test system of one test is MCF-7 cells. The test is described as follows: Detection of autophagy in tamoxifen treated MCF-7 cells (MDC, LC3-GFP, TEM). The test is classed as cell-based, human. An excerpt: Assays for autophagy and cell viability: We used flow cytometry based methods and microscopy to analyze autophagy levels. Cells were stained with MDC and LT-G and first analyzed manually by fluorescence microscopy and then by flow cytometry using a BD® flow cytometer (FACSVANTAGE™ SE, BD, TFL FACS Facility, BCCRC). […] To confirm that these two populations represent a functional difference in autophagy levels, RNA and protein from these FACS sorted cell were subjected to QRT-PCR for the MAP1LC3b gene, a commonly accepted marker for autophagy (16). In addition, the two populations were analyzed by Transmission Electron Microscopy (TEM) for the presence of autophagosomes (9).
FIG. 8. […] B. MCF-7 cells treated with 10^-6 M tamoxifen. In panels A, B, & D, cells are stained with the autolysosomal marker, MDC, detected as punctate staining (e.g. arrows in B).
In panels C and D, autophagy is detected by LC3-GFP localization. C. Punctate GFP-LC3 in transient transfected MCF7 cells treated with TAM. […] In panel E-H, TEM analyses indicate that autolysosomes are abundant in tamoxifen treated MCF7 cell sorted MDC (+) populations but not untreated MCF7 cells. Representative image of an untreated MCF7 cell is shown in (E) with a magnified view of the same cell in (G). Panels (F) and (H) show a cell treated with 5 uM tamoxifen (72 hrs).

The test system of test [1] is FM3A murine breast tumour cells. The following applies: literature (10); cited from earlier work.
The subject of test [2] is MCF7 human breast carcinoma cells. To be noted: literature (9), cited from earlier work.

As for `CC/C(=C(\c1ccccc1)c1ccc(OCCN(C)C)cc1)c1ccccc1` [Tamoxifen], the “Autolysosomes by TEM” value in the test on MCF-7 cells (MCF7 cell treated with 5 uM tamoxifen (72 hrs), versus untreated) is “Numerous autolysosomes”. Also, in the test with MCF-7 cells (MCF-7 cells, 10^-6 M tamoxifen), the “Induction of autophagy (MDC punctate staining, LC3-GFP localization)” value is given as “induces autophagy”. In addition, the Induction of autophagy result in test [1] is listed as “induce autophagy”; in test [2] (listed as tamoxifen), “undergo autophagy”; in test [2], “induce autophagy”.
